Test results published in the NIST ThermoML archive (doi:10.1016/j.jct.2014.03.005).
Values joined by “and” are separate entries in the source; they are usually repeats but may differ in a detail not shown here. Equal values may be shown once.

Key:
[1] = molar enthalpy of vaporization or sublimation; conditions: 298.15 K; Crystal; Static calorimetry
[2] = Molar enthalpy of transition or fusion; conditions: Crystal; DSC
[3] = Crystal; for vapor or sublimation pressure: Calculated from knudsen effusion weight loss; for Normal melting temperature: DTA

Nc1ccc2c(c1)Cc1ccccc1-2 [2-aminofluorene]
Conditions | Molar enthalpy of transition or fusion [kcal/mol] | Normal melting temperature [°C] | molar enthalpy [kcal/mol]
[1] | – | – | 26.4
[2] | 5.69 | – | –
[3] | – | 127.79 | –

[3]
Conditions | vapor or sublimation pressure
345.16 K | 0.000121 kPa and 0.00012 kPa and 0.000118 kPa
347.13 K | 0.000155 kPa and 0.000154 kPa and 0.000148 kPa
349.17 K | 0.000189 kPa and 0.000182 kPa and 0.00019 kPa
351.15 K | 0.000238 kPa and 0.000226 kPa
353.1 K | 0.000286 kPa and 0.000283 kPa and 0.000291 kPa
355.17 K | 0.00035 kPa and 0.000348 kPa and 0.000362 kPa
357.13 K | 0.000447 kPa and 0.000436 kPa and 0.000432 kPa
359.16 K | 0.000546 kPa and 0.000522 kPa and 0.000551 kPa
361.13 K | 0.000675 kPa and 0.000647 kPa and 0.000664 kPa
363.1 K | 0.000811 kPa and 0.000789 kPa and 0.000805 kPa
365.09 K | 0.000994 kPa and 0.000997 kPa and 0.000981 kPa

O=[N+]([O-])c1ccc2c(c1)Cc1ccccc1-2 [2-nitro-9H-fluorene]
Conditions | Molar enthalpy of transition or fusion [kcal/mol] | Normal melting temperature [°C] | molar enthalpy [kcal/mol]
[1] | – | – | 27.3
[2] | 5.92 | – | –
[3] | – | 156.74 | –

[3]
Conditions | vapor or sublimation pressure
357.16 K | 9e-05 kPa and 9.2e-05 kPa
359.13 K | 0.000115 kPa and 0.000114 kPa and 0.000111 kPa
361.11 K | 0.000141 kPa and 0.000139 kPa and 0.00014 kPa
363.16 K | 0.000172 kPa and 0.00017 kPa
365.14 K | 0.000217 kPa and 0.000209 kPa and 0.000213 kPa
367.11 K | 0.000261 kPa and 0.000258 kPa
369.16 K | 0.000315 kPa and 0.000322 kPa
371.13 K | 0.000398 kPa and 0.000377 kPa and 0.000392 kPa
373.1 K | 0.000478 kPa and 0.000472 kPa and 0.000474 kPa
375.15 K | 0.000565 kPa and 0.000561 kPa and 0.000578 kPa
377.14 K | 0.000696 kPa and 0.000707 kPa and 0.000678 kPa
379.12 K | 0.000839 kPa and 0.000844 kPa and 0.000829 kPa
